In brackets after ≈: the same amount, converted by molar mass.
How the values were obtained:
Format in all cases: cell-based
[1] = tested on: spores of ATCC BBA1870 strain; assay: Inhibition of germination of C. difficile spores (MIC), strain ATCC BBA1870; details: Clostridioides difficile, ATCCBBA1870STRAIN, 1 h; strain 1870; sodium taurocholate as germinant, BHIS medium, 37° C., OD580 for 60 min; read-out: MIC (minimum concentration that completely inhibits spore germination)
In short: (§1)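 Spores heat-activated for 30 min at 65° C and washed, then preincubated with compound (10 mM DMSO stock) in BHIS at 37° C. Germination was triggered with sodium taurocholate, and OD580 was read each minute for 60 min. Inhibition = 100% − germination rate, from final vs initial OD relative to germinant-only controls.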

[2] = tested on: spores of ATCC 43255 strain; assay: Inhibition of germination of C. difficile spores (MIC), strain ATCC 43255; details: Clostridioides difficile, ATCC43255, 1 h; strain 43255; sodium taurocholate as germinant, BHIS medium, 37° C., OD580 for 60 min; read-out: MIC (minimum concentration that completely inhibits spore germination)
In short: as §1

[3] = tested on: spores of ATCC 630 strain; assay: Inhibition of germination of C. difficile spores (MIC), strain ATCC 630; details: Clostridioides difficile, ATCC630, 1 h; strain 630; sodium taurocholate as germinant, BHIS medium, 37° C., OD580 for 60 min; read-out: MIC (minimum concentration that completely inhibits spore germination)
In short: as §1

Row | SMILES | MIC [1] [µM] | MIC [2] [µM] | MIC [3] [µM]
1 | CC[C@H](NC(=O)C[C@@H](C)[C@H]1CC[C@H]2[C@@H]3C[C@H](O)[C@@H]4CC(=O)CC[C@]4(C)[C@H]3CC[C@]12C)c1ccc(Cl)s1 [Compound I-129] | 4 (≈ 2.14 µg/mL) | 2 (≈ 1.07 µg/mL) | 2 (≈ 1.07 µg/mL)
2 | CC(C)C(NC(=O)C[C@@H](C)[C@H]1CC[C@H]2[C@@H]3C[C@H](O)[C@@H]4CC(=O)CC[C@]4(C)[C@H]3CC[C@]12C)c1ccc(Br)s1 (stereo partly drawn) [Compound I-130] | 4 (≈ 2.37 µg/mL) | 4 (≈ 2.37 µg/mL) | 4 (≈ 2.37 µg/mL)
3 | CC(C)[C@@H](NC(=O)C[C@@H](C)[C@H]1CC[C@H]2[C@@H]3CC(=O)[C@@H]4CC(=O)CC[C@]4(C)[C@H]3CC[C@]12C)c1ccc(Cl)s1 [Compound I-131] | 2 (≈ 1.09 µg/mL) | 2 (≈ 1.09 µg/mL) | 2 (≈ 1.09 µg/mL)
4 | CC[C@H](NC(=O)C[C@@H](C)[C@H]1CC[C@H]2[C@@H]3[C@H](O)C[C@@H]4CC(=O)CC[C@]4(C)[C@H]3CC[C@]12C)c1cccs1 [Compound I-132] | > 256 | 128 (≈ 64 µg/mL) | 256 (≈ 128 µg/mL)
5 | CC[C@@H](NC(=O)C[C@@H](C)[C@H]1CC[C@H]2[C@@H]3[C@H](O)C[C@@H]4CC(=O)CC[C@]4(C)[C@H]3CC[C@]12C)c1cccs1 [Compound I-133] | 2 (≈ 1 µg/mL) | 2 (≈ 1 µg/mL) | 2 (≈ 1 µg/mL)
6 | CC(C)C(NC(=O)C[C@@H](C)[C@H]1CC[C@H]2[C@@H]3[C@H](O)C[C@@H]4CC(=O)CC[C@]4(C)[C@H]3CC[C@]12C)c1cccs1 (stereo partly drawn) [Compound I-134] | 2 (≈ 1.03 µg/mL) | 2 (≈ 1.03 µg/mL) | 2 (≈ 1.03 µg/mL)
7 | CC(C)[C@H](NC(=O)C[C@@H](C)[C@H]1CC[C@H]2[C@@H]3[C@H](O)C[C@@H]4CC(=O)CC[C@]4(C)[C@H]3CC[C@]12C)c1cccs1 [Compound I-135] | > 256 | > 256 | > 256
8 | CC(C)[C@@H](NC(=O)C[C@@H](C)[C@H]1CC[C@H]2[C@@H]3[C@H](O)C[C@@H]4CC(=O)CC[C@]4(C)[C@H]3CC[C@]12C)c1cccs1 [Compound I-136] | 1 (≈ 0.514 µg/mL) | 1 (≈ 0.514 µg/mL) | 1 (≈ 0.514 µg/mL)
9 | CC[C@@H](NC(=O)C[C@@H](C)[C@H]1CC[C@H]2[C@@H]3[C@H](O)C[C@@H]4C[C@H](O)CC[C@]4(C)[C@H]3CC[C@]12C)c1ccc(Cl)s1 [Compound I-137] | 1 (≈ 0.536 µg/mL) | 1 (≈ 0.536 µg/mL) | 1 (≈ 0.536 µg/mL)
10 | CC[C@@H](NC(=O)C[C@@H](C)[C@H]1CC[C@H]2[C@@H]3[C@H](O)C[C@@H]4C[C@H](O)CC[C@]4(C)[C@H]3CC[C@]12C)c1ccc(Br)s1 [Compound I-138] | 1 (≈ 0.581 µg/mL) | 1 (≈ 0.581 µg/mL) | 1 (≈ 0.581 µg/mL)
11 | CC(C)[C@@H](NC(=O)C[C@@H](C)[C@H]1CC[C@H]2[C@@H]3[C@H](O)C[C@@H]4C[C@H](O)CC[C@]4(C)[C@H]3CC[C@]12C)c1ccc(Cl)s1 [Compound I-139] | 2 (≈ 1.1 µg/mL) | 1 (≈ 0.55 µg/mL) | 1 (≈ 0.55 µg/mL)
12 | CC(C)[C@@H](NC(=O)C[C@@H](C)[C@H]1CC[C@H]2[C@@H]3[C@H](O)C[C@@H]4C[C@H](O)CC[C@]4(C)[C@H]3CC[C@]12C)c1ccc(Br)s1 [Compound I-140] | 1 (≈ 0.595 µg/mL) | 1 (≈ 0.595 µg/mL) | 1 (≈ 0.595 µg/mL)
13 | CC[C@@H](NC(=O)C[C@@H](C)[C@H]1CC[C@H]2[C@@H]3[C@@H](O)C[C@@H]4C[C@H](O)CC[C@]4(C)[C@H]3CC[C@]12C)c1ccc(Cl)s1 [Compound I-141] | 32 (≈ 17.2 µg/mL) | 32 (≈ 17.2 µg/mL) | 32 (≈ 17.2 µg/mL)
14 | CC(C)[C@@H](NC(=O)C[C@@H](C)[C@H]1CC[C@H]2[C@@H]3[C@@H](O)C[C@@H]4C[C@H](O)CC[C@]4(C)[C@H]3CC[C@]12C)c1ccc(Br)s1 [Compound I-142] | 32 (≈ 19 µg/mL) | 32 (≈ 19 µg/mL) | 32 (≈ 19 µg/mL)
15 | CC[C@@H](NC(=O)C[C@@H](C)[C@H]1CC[C@H]2[C@@H]3[C@H](O)C[C@@H]4C[C@@H](O)CC[C@]4(C)[C@H]3CC[C@]12C)c1ccc(Br)s1 [Compound I-143] | 8 (≈ 4.65 µg/mL) | 4 (≈ 2.32 µg/mL) | 4 (≈ 2.32 µg/mL)
16 | CC(C)[C@@H](NC(=O)C[C@@H](C)[C@H]1CC[C@H]2[C@@H]3[C@H](O)C[C@@H]4C[C@@H](O)CC[C@]4(C)[C@H]3CC[C@]12C)c1ccc(Cl)s1 [Compound I-144] | 4 (≈ 2.2 µg/mL) | 2 (≈ 1.1 µg/mL) | 2 (≈ 1.1 µg/mL)
17 | CC[C@@H](NC(=O)C[C@@H](C)[C@H]1CC[C@H]2[C@@H]3[C@H](O)C[C@@H]4C[C@H](O)CC[C@]4(C)[C@H]3C[C@H](O)[C@]12C)c1ccc(Cl)s1 [Compound I-145] | 32 (≈ 17.7 µg/mL) | 32 (≈ 17.7 µg/mL) | 16 (≈ 8.84 µg/mL)

Row | SMILES | MIC [1] [µM] | MIC [2] [µM] | MIC [3] [µM]
18 | CC(C)[C@@H](NC(=O)C[C@@H](C)[C@H]1CC[C@H]2[C@@H]3[C@H](O)C[C@@H]4C[C@H](O)CC[C@]4(C)[C@H]3C[C@H](O)[C@]12C)c1ccc(Cl)s1 [Compound I-146] | 16 (≈ 9.06 µg/mL) | 16 (≈ 9.06 µg/mL) | 16 (≈ 9.06 µg/mL)
19 | CC[C@@H](NC(=O)C[C@@H](C)[C@H]1CC[C@H]2[C@@H]3CC[C@@H]4C[C@H](O)CC[C@]4(C)[C@H]3CC[C@]12C)c1ccc(Br)s1 [Compound I-147] | 32 (≈ 18.1 µg/mL) | 16 (≈ 9.03 µg/mL) | 16 (≈ 9.03 µg/mL)
20 | CC(C)[C@@H](NC(=O)C[C@@H](C)[C@H]1CC[C@H]2[C@@H]3CC[C@@H]4C[C@H](O)CC[C@]4(C)[C@H]3CC[C@]12C)c1ccc(Br)s1 [Compound I-148] | 16 (≈ 9.26 µg/mL) | 16 (≈ 9.26 µg/mL) | 16 (≈ 9.26 µg/mL)
21 | CC[C@@H](NC(=O)C[C@@H](C)[C@H]1CC[C@H]2[C@@H]3C(=O)C[C@@H]4C[C@H](O)CC[C@]4(C)[C@H]3CC[C@]12C)c1ccc(Cl)s1 [Compound I-149] | 2 (≈ 1.07 µg/mL) | 2 (≈ 1.07 µg/mL) | 2 (≈ 1.07 µg/mL)
22 | CC(C)[C@@H](NC(=O)C[C@@H](C)[C@H]1CC[C@H]2[C@@H]3C(=O)C[C@@H]4C[C@H](O)CC[C@]4(C)[C@H]3CC[C@]12C)c1ccc(Cl)s1 [Compound I-150] | 2 (≈ 1.1 µg/mL) | 2 (≈ 1.1 µg/mL) | 1 (≈ 0.548 µg/mL)
23 | CC[C@@H](NC(=O)C[C@@H](C)[C@H]1CC[C@H]2[C@@H]3C(=O)CC4=CC(=O)CC[C@]4(C)[C@H]3CC[C@]12C)c1ccc(Br)s1 [Compound I-151] | 0.5 (≈ 0.287 µg/mL) | 1 (≈ 0.575 µg/mL) | 0.5 (≈ 0.287 µg/mL)
24 | CC(C)[C@@H](NC(=O)C[C@@H](C)[C@H]1CC[C@H]2[C@@H]3C(=O)CC4=CC(=O)CC[C@]4(C)[C@H]3CC[C@]12C)c1ccc(Br)s1 [Compound I-152] | 1 (≈ 0.589 µg/mL) | 1 (≈ 0.589 µg/mL) | 0.5 (≈ 0.294 µg/mL)
25 | CC[C@@H](NC(=O)C[C@@H](C)[C@H]1CC[C@H]2[C@@H]3C(=O)CC4=CC(=O)C=C[C@]4(C)[C@H]3CC[C@]12C)c1ccc(Cl)s1 [Compound I-153] | 0.5 (≈ 0.264 µg/mL) | 0.5 (≈ 0.264 µg/mL) | 0.5 (≈ 0.264 µg/mL)
26 | CC(C)[C@@H](NC(=O)C[C@@H](C)[C@H]1CC[C@H]2[C@@H]3C(=O)CC4=CC(=O)C=C[C@]4(C)[C@H]3CC[C@]12C)c1ccc(Cl)s1 [Compound I-154] | 1 (≈ 0.542 µg/mL) | 0.5 (≈ 0.271 µg/mL) | 0.5 (≈ 0.271 µg/mL)
27 | CC[C@@H](NC(=O)C[C@@H](C)[C@H]1CC[C@H]2[C@@H]3[C@H](O)CC4=CC(=O)CC[C@]4(C)[C@H]3CC[C@]12C)c1ccc(Br)s1 [Compound I-155-2] | 0.25 (≈ 0.144 µg/mL) | 0.25 (≈ 0.144 µg/mL) | 0.25 (≈ 0.144 µg/mL)
28 | CC(C)[C@@H](NC(=O)C[C@@H](C)[C@H]1CC[C@H]2[C@@H]3[C@H](O)CC4=CC(=O)CC[C@]4(C)[C@H]3CC[C@]12C)c1ccc(Br)s1 [Compound I-156-2] | 0.25 (≈ 0.148 µg/mL) | 0.5 (≈ 0.295 µg/mL) | 0.25 (≈ 0.148 µg/mL)
29 | CC[C@@H](NC(=O)C[C@@H](C)[C@H]1CC[C@H]2[C@@H]3[C@H](O)CC4=CC(=O)CC[C@]4(C)[C@H]3CC[C@]12C)c1ccc(Cl)s1 [Compound I-157-2] | 0.25 (≈ 0.133 µg/mL) | 0.5 (≈ 0.266 µg/mL) | 0.25 (≈ 0.133 µg/mL)
30 | CC(C)[C@@H](NC(=O)C[C@@H](C)[C@H]1CC[C@H]2[C@@H]3[C@H](O)CC4=CC(=O)CC[C@]4(C)[C@H]3CC[C@]12C)c1ccc(Cl)s1 [Compound I-158-2] | 0.5 (≈ 0.273 µg/mL) | 0.5 (≈ 0.273 µg/mL) | 0.5 (≈ 0.273 µg/mL)
31 | CC[C@@H](NC(=O)C[C@@H](C)[C@H]1CC[C@H]2[C@@H]3[C@H](O)CC4=CC(=O)C=C[C@]4(C)[C@H]3CC[C@]12C)c1ccc(Br)s1 [Compound I-159-2] | 0.5 (≈ 0.287 µg/mL) | 0.5 (≈ 0.287 µg/mL) | 0.5 (≈ 0.287 µg/mL)
32 | CC(C)[C@@H](NC(=O)C[C@@H](C)[C@H]1CC[C@H]2[C@@H]3[C@H](O)CC4=CC(=O)C=C[C@]4(C)[C@H]3CC[C@]12C)c1ccc(Br)s1 [Compound I-160-2] | 0.5 (≈ 0.294 µg/mL) | 0.5 (≈ 0.294 µg/mL) | 0.5 (≈ 0.294 µg/mL)
33 | CC[C@@H](NC(=O)C[C@@H](C)[C@H]1CC[C@H]2[C@@H]3[C@H](O)CC4=CC(=O)C=C[C@]4(C)[C@H]3CC[C@]12C)c1ccc(Cl)s1 [Compound I-161-2] | 0.25 (≈ 0.133 µg/mL) | 0.5 (≈ 0.265 µg/mL) | 0.25 (≈ 0.133 µg/mL)

— patent US20230135729A1, “COMPOUND WITH ANTI-SPORE ACTIVITY AND PHARMACEUTICAL COMPOSITION THEREOF” (priority 2020, published 2023)
